# In ChEMBL document CHEMBL1201862, “PubChem BioAssay data set” (2004):
# Active and inactive are the calls of the source.
# What was measured:
# [1] = molecular target: T1, Microphthalmia-associated transcription factor (Homo sapiens, UniProt O75030); experiment: TRPM1 promoter luciferase signal decrease, dose response, MITF inhibitor project, cell-based, SK-MEL-5, cherry-picked, set 3 (AID 493073); type: functional
# T1 sequence (O75030 whole entry): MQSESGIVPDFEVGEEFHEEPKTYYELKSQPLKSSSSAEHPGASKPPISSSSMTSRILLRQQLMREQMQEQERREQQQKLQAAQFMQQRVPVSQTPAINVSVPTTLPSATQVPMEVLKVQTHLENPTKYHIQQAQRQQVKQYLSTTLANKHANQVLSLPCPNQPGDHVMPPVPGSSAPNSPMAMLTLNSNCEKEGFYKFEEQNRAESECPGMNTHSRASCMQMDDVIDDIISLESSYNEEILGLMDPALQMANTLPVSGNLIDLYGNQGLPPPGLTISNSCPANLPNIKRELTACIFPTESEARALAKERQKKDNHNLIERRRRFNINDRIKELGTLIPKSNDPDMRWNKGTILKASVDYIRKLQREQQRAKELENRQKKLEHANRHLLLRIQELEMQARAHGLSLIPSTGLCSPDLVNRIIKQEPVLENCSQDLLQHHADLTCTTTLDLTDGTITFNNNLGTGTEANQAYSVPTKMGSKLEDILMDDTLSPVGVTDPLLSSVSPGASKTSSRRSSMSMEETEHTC
# cells [2] = type: functional, cell-based
# cells [3] = type: functional, cell-based; remark: listed apart in the source
# [4] = molecular target: T2, Histone-lysine N-methyltransferase NSD2 (Homo sapiens, UniProt O96028); type: biochemical
# T2 sequence (O96028 whole entry): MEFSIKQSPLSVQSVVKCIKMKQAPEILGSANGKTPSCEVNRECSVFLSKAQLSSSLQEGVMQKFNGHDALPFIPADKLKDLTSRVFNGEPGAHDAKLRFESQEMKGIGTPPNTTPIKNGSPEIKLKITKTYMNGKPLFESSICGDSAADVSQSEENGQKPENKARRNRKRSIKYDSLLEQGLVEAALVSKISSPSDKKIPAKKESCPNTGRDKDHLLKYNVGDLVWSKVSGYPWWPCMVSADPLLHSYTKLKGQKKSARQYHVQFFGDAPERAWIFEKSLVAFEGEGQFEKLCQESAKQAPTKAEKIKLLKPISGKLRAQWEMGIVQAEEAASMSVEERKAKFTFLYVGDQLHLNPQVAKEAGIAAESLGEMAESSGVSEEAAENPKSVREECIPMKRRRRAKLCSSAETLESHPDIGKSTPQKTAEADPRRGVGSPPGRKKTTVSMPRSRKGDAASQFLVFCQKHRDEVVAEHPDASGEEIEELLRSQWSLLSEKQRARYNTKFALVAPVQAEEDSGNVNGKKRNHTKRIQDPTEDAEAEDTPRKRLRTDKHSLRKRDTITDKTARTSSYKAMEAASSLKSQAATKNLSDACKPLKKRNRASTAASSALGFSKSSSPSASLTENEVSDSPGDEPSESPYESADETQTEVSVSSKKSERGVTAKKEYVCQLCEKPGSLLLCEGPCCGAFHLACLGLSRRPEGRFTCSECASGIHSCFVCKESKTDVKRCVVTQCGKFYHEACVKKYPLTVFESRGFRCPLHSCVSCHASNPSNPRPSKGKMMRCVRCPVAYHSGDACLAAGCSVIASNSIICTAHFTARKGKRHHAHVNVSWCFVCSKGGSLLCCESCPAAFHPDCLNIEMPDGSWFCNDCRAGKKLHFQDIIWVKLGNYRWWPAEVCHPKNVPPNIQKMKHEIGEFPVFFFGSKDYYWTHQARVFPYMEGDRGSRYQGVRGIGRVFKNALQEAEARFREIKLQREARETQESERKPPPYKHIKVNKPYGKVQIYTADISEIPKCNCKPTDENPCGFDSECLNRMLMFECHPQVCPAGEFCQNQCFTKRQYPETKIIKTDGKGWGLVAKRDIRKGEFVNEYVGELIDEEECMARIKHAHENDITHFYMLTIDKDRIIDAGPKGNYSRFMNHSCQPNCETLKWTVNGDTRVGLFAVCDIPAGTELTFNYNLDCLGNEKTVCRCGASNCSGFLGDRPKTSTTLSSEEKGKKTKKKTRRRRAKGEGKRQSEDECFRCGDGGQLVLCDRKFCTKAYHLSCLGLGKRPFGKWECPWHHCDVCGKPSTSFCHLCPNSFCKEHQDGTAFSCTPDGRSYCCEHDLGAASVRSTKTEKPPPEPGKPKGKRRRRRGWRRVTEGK
# cells [5] = type: functional
# [6] = molecular target: T3, Polyadenylate-binding protein 1 (Homo sapiens, UniProt P11940); experiment: PABP1 MLLE–PAM2 binding inhibitor potency, dose response, biochemical, fluorescence polarization, FITC-PAM2 peptide (AID 602259); type: functional; details: read-out: IC50_Mean
# [7] = molecular target: T3, Polyadenylate-binding protein 1; experiment: PABP1 MLLE–PAM2 interaction inhibitors, dose response, miRNA deadenylation inhibitor project, biochemical, fluorescence polarization, Cy5-PAM2 peptide, secondary (AID 602260); type: functional; details: read-out: IC50_Mean
# Protein skinhead-1 = molecular target: T4, Protein skinhead-1 (Caenorhabditis elegans, UniProt P34707); type: functional
# T4 sequence (P34707 whole entry): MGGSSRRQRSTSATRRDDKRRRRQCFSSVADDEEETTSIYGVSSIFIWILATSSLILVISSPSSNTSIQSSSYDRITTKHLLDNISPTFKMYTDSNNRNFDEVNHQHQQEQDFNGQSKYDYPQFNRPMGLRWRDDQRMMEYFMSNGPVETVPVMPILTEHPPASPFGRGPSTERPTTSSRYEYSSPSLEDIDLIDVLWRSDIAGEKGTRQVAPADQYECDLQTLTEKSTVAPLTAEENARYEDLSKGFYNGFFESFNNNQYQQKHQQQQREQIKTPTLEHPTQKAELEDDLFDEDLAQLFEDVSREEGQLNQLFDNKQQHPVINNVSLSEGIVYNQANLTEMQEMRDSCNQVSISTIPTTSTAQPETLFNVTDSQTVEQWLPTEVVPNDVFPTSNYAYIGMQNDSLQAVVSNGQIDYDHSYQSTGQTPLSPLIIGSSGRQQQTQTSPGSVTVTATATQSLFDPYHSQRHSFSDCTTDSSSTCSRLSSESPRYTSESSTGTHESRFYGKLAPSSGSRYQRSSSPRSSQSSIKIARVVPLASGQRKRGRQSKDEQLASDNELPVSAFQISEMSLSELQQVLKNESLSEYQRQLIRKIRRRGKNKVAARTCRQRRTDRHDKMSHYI
# [8] = molecular target: Glucose-6-phosphate 1-dehydrogenase (Homo sapiens, UniProt P11413); experiment: human G6PD enzyme inhibitors, dose response, selectivity assay for P. falciparum G6PD inhibitor project, biochemical, fluorescence (AID 504792); type: functional
# Protein RecA = molecular target: T5, Protein RecA (Mycobacterium tuberculosis, UniProt P9WHJ3); experiment: Fluorescence Cell-Free Homogeneous Dose Retest to Identify Inhibitors of RecA-Intein Splicing Activity. [Related pubchem assays (depositor defined):AID2097, AID2223, AID489010, AID492950]; type: functional
# T5 sequence (P9WHJ3 whole entry): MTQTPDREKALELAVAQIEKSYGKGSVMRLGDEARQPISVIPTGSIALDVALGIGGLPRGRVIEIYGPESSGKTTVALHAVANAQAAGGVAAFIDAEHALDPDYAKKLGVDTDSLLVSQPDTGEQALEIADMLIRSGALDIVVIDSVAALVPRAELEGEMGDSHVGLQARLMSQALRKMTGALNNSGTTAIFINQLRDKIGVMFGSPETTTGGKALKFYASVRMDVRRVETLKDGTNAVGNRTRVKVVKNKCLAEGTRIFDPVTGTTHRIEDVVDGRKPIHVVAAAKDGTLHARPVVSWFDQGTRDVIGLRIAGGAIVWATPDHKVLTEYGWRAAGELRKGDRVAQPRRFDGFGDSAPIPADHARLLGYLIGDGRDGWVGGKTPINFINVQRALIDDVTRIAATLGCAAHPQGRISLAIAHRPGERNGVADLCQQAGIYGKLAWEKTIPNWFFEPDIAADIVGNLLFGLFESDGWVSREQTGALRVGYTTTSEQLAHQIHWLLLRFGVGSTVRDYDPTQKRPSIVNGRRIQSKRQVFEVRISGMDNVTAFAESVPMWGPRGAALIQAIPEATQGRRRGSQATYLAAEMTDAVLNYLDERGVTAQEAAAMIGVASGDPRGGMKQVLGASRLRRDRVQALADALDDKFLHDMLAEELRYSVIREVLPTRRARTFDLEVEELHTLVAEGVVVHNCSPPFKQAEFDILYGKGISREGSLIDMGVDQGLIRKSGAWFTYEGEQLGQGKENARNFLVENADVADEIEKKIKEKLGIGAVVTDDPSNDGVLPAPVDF
# [9] = molecular target: T6, Replicative DNA helicase DnaB (Mycobacterium tuberculosis, UniProt P9WMR3); experiment: DnaB intein splicing inhibitors, dose response, biochemical, cell-free fluorescence (AID 449749); type: functional
# T6 sequence (P9WMR3 whole entry): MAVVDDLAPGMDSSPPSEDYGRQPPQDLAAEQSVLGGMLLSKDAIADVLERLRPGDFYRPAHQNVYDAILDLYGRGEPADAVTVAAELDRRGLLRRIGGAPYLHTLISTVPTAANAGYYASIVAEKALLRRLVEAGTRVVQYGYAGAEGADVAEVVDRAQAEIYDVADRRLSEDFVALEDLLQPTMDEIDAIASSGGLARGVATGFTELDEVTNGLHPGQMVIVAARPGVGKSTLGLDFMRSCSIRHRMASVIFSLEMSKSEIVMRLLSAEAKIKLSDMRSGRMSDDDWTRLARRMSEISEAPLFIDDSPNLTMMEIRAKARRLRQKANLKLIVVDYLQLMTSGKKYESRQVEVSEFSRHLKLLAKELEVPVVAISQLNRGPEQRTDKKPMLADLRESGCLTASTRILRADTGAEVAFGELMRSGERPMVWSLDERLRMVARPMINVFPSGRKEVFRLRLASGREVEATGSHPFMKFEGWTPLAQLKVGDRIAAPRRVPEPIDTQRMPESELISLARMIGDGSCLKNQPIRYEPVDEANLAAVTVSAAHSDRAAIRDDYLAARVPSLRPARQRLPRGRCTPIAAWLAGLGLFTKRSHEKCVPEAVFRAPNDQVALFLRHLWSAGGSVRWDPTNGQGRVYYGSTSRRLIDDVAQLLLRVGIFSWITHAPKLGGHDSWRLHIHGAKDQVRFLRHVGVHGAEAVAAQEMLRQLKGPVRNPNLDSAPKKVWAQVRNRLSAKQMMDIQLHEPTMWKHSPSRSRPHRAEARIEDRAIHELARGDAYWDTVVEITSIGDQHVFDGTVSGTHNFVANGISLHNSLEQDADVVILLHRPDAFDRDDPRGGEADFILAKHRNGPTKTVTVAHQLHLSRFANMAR
# [10] = HeLa cell cytotoxicity, dose response, cytotoxicity control for MgcRacGAP inhibitor project (AID 624300); type: functional
# [11] = inhibitors of intracellular T. cruzi replication, confirmation, NIH3T3 host cells, beta-gal luminescence (AID 2044); type: functional, cell-based;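 also: intracellular parasites grown in NIH/3T3 mouse fibroblasts as host cells; luminescent beta-galactosidase reporter signal from transgenic T. cruzi replicating inside host cells; inhibitors lower the luminescence signal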
# [12] = Luminescence Cell-Based Dose Retest to Confirm Inhibitors of Cancer Stem Cells. [Related pubchem assays (depositor defined):AID2717, AID2721]; type: functional; details: Homo sapiens
# [13] = cytotoxicity toward NIH3T3 fibroblasts, dose response, counter-screen, cell-based, ATP luminescence, mouse fibroblasts (AID 2010); type: functional;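 also: cells exposed to compound for about 90 hours before reading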
# Sequence of Glucose-6-phosphate 1-dehydrogenase (P11413 whole entry): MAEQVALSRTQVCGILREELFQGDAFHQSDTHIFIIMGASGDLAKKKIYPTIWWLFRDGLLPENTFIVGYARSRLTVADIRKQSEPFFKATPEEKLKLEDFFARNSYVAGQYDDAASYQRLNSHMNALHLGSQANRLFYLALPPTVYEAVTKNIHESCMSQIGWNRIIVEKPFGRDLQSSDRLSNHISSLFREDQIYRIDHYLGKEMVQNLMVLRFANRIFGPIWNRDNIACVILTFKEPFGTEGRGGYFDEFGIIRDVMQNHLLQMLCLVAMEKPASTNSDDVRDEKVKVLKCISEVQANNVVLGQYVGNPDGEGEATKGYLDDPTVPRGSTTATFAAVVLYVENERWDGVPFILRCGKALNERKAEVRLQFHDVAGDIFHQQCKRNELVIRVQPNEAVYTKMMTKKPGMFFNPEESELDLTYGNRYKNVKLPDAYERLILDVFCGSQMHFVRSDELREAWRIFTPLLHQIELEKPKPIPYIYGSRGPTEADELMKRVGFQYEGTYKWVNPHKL
# T3 sequence (P11940 whole entry): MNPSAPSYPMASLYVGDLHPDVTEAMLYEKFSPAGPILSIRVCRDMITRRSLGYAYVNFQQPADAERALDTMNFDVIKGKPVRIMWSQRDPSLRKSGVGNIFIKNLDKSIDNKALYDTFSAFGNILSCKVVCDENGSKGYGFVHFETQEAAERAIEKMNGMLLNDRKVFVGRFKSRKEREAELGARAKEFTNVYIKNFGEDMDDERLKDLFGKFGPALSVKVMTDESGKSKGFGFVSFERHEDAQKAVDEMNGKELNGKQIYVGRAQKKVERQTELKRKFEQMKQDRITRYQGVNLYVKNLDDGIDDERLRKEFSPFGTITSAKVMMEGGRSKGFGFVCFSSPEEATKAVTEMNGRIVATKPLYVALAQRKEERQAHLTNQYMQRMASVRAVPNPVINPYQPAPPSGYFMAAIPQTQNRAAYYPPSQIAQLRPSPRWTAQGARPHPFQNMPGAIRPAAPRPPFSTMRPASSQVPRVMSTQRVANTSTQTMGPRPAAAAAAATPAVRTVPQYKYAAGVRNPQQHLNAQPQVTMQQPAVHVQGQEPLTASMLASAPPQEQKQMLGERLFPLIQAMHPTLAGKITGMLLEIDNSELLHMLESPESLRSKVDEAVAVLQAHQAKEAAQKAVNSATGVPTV
smiles,measurement,setting,value
Cc1cnc(NC(=O)c2nn(C)cc2[N+](=O)[O-])s1,AC50,[1],20.6 µM (active)
CC(C)=N/N=C(\N)SCc1ccccc1,IC50,cells [2],> 29.9 µM (inactive)
same,EC50,cells [3],> 29.9 µM (inactive)
CCN(CC)CCCNC(=O)C1CCN(C(=O)c2oc3cc4sc(N(C)C)nc4cc3c2C)CC1,AC50,[4],> 20 µM (inactive)
Cc1ccc(-c2nnc(SCC#CCOC(=O)c3ccco3)o2)cc1,IC50,cells [5],4.78 µM (active)
CN(C=[N+](C)C)c1cccc2c1C(=O)c1ccccc1C2=O,IC50,[6],58.5 µM (inactive)
same,IC50,[7],> 66 µM (inactive)
same,AC50,[4],> 20 µM (inactive)
Brc1ccc(-c2csc(-c3ccncc3)n2)cc1,IC50,Protein skinhead-1,51.6 µM (inactive)
COc1ccc(CC(=O)Nc2cc(S(=O)(=O)N3CCOCC3)ccc2N2CCOCC2)cc1,IC50,Protein skinhead-1,> 100 µM (inactive)
O=C(O)CCc1ccc(-c2ccccc2)n1NC(=O)c1ccco1,IC50,Protein skinhead-1,> 100 µM (inactive)
COc1ccc(C2(CNC(=O)c3ccc(OC)c([N+](=O)[O-])c3)CCCCC2)cc1OC,IC50,[8],60.7 µM (inactive)
CCCCCn1nnc2c(=O)oc3ccccc3c21,IC50,cells [5],2.67 µM (active)
N#C/C(=C\c1ccc(F)cc1)c1nc(-c2ccco2)cs1,IC50,Protein skinhead-1,> 100 µM (inactive)
CCN(Cc1ccccc1)C(c1ccc(C)cc1)c1nnnn1C(C)(C)CC (stereo not drawn),EC50,Protein RecA,> 380 µM (inactive)
same,AC50,[9],2.41 µM (active)
same,CC50,[10],100 µM (active)
Cc1ccc2sc(N(CCCN(C)C)C(=O)c3ccc(S(=O)(=O)N(C)C4CCCCC4)cc3)nc2c1C,EC50,[11],0.148 µM (active)
same,AC50,[12],3.72 µM (active)
same,AC50,[1],18 µM (active)
same,EC50,[13],10.3 µM (active)
CN(C)c1ccc(C=c2c3ccccc3n3c2c2ccccc2[n+]3C)cc1,IC50,[8],> 80 µM (inactive)
O=C(NC(c1ccc(-c2ccccc2)cc1)c1cnccn1)C1CCN(Cc2cccs2)CC1 (stereo not drawn),IC50,Protein skinhead-1,> 100 µM (inactive)
